Experimental data taken from patent publication US10710984B2, “N-[(Pyrimidinylamino)propanyl]-and N-[(Pyridinylamino)-propanyl]arylcarboxamides” (Boehringer Ingelheim International GmbH, priority 2016, dated 2020).

What was measured:
human MDR1 P-gp = molecular target: T1, human MDR1 P-gp (Homo sapiens, UniProt P08183); experiment: Assay C: efflux in MDCK cells transfected with the human MDR1 gene; format: in vitro ADME; details: MDCK-MDR1 cell monolayers, pH 7.4, 37° C., read-out: MDCK efflux ratio (BA/AB)
T1 construct: expressed in transfected cells; host or cells: MDCK (MDCK-MDR1)
T1 sequence (P08183 whole entry): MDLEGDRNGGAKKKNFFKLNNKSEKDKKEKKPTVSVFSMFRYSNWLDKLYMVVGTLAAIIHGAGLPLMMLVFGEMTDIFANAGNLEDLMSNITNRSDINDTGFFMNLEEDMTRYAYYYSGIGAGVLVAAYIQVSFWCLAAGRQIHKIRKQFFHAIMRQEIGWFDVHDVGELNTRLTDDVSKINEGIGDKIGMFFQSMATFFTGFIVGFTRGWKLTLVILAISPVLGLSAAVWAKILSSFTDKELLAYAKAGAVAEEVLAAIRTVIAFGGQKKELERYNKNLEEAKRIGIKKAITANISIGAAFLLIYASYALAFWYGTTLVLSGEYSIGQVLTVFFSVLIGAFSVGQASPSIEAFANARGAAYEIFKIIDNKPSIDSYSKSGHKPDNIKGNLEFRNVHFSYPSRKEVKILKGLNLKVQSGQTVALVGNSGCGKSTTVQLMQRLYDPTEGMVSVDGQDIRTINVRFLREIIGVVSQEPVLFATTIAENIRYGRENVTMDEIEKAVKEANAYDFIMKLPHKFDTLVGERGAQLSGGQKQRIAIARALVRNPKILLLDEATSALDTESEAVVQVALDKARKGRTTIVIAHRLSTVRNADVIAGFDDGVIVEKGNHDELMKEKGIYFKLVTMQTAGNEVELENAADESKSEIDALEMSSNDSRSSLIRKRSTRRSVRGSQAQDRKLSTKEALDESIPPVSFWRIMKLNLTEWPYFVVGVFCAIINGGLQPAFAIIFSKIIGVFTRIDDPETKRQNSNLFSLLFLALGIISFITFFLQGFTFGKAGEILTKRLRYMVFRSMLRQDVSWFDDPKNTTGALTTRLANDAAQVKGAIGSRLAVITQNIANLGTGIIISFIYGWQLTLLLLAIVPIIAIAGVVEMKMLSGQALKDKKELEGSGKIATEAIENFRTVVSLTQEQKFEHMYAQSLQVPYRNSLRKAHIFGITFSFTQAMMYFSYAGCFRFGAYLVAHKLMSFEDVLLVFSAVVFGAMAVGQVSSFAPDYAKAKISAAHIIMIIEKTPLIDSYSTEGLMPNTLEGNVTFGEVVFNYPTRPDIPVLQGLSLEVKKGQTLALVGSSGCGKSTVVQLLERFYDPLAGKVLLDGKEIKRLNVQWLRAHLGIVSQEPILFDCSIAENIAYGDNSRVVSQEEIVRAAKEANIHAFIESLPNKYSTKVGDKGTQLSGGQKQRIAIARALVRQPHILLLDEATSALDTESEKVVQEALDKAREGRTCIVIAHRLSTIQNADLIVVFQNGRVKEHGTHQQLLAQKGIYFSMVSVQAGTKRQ
Experimental: C. Assessment of Efflux in Madin-Darby Canine Kidney (MDCK) Cells Transfected with the Human MDR1 Gene
Apparent permeability coefficients (PE) of the compounds across the MDCK-MDR1 cell monolayers are measured (pH 7.4, 37° C.) in apical-to-basal (AB) and basal-to-apical (BA) transport direction. AB permeability (PEAB) represents drug absorption from the blood into the brain and BA permeability (PEBA) drug efflux from the brain back into the blood via both passive permeability as well as active transport mechanisms mediated by efflux and uptake transporters that are expressed on the MDCK-MDR1 cells, predominantly by the overexpressed human MDR1 P-gp. The compounds are assigned to permeability/absorption classes by comparison of the AB permeabilities with the AB permeabilities of reference compounds with known in vitro permeability and oral absorption in the human. Identical or similar permeabilities in both transport directions indicate passive permeation, vectorial permeability points to additional active transport mechanisms. Higher PEBA than PEAB indicates the involvement of active efflux mediated by MDR1 P-gp. Active transport is concentration-dependently saturable.
MDCK-MDR1 cells (1-2×10e5 cells/1 cm2 area) are seeded on filter inserts (Costar transwell polycarbonate or PET filters, 0.4 μm pore size) and cultured (DMEM) for 7 days. Subsequently, the MDR1 expression is boosted by culturing the cells with 5 mM sodium butyrate in full medium for 2 days. Compounds are dissolved in appropriate solvent (like DMSO, 1-20 mM stock solutions). Stock solutions are diluted with HTP-4 buffer (128.13 mM NaCl, 5.36 mM KCl, 1 mM MgSO4, 1.8 mM CaCl2, 4.17 mM NaHCO3, 1.19 mM Na2HPO4×7H2O, 0.41 mM NaH2PO4—H2O, 15 mM HEPES, 20 mM glucose, 0.25% BSA, pH 7.4) to prepare the transport solutions (0.1-300 μM compound, final DMSO<=0.5%). The transport solution (TL) is applied to the apical or basolateral donor side for measuring A-B or B-A permeability (3 filter replicates), respectively. The receiver side contains the same buffer as the donor side. Samples are collected at the start and end of experiment from the donor and at various time intervals for up to 2 hours also from the receiver side for concentration measurement by H PLC-MS/MS or scintillation counting. Sampled receiver volumes are replaced with fresh receiver solution.

human Orexin 1 receptor = molecular target: T2, human Orexin 1 receptor (Homo sapiens, UniProt O43613); experiment: Assay A: in vitro testing of OX1R potency, OX1R IP1; format: cell-based; details: for Kb: Table 4a, 50 nM Orexin A
T2 construct: CHO-K1 cells stably expressing the full-length human Orexin 1 receptor and the aequorin photoprotein; expressed in transfected cells; host or cells: CHO-K1 (CHO-K1/hOx1)
T2 sequence (O43613 1-425): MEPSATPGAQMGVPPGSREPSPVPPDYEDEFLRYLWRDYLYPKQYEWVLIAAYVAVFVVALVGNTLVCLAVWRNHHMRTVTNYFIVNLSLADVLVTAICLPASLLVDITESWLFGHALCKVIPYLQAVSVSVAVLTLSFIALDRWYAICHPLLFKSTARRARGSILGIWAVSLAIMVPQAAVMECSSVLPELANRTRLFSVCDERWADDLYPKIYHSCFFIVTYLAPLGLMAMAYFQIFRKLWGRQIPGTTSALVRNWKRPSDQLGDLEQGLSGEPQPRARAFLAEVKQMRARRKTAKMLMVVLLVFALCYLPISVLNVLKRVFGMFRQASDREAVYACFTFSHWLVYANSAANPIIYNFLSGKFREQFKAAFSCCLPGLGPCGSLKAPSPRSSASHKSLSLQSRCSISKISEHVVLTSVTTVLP

[1] = Assay D: assessment of log P; format: physicochemical
Experimental: The assay was performed following the description by S. F. Donovan and M. C. Pescatore in J. Chromatogr. A 952 (2002) 47-61.

human orexin 2 receptor = molecular target: T3, human orexin 2 receptor (Homo sapiens, UniProt O43614); experiment: Assay B: in vitro testing of OX2R potency, OX2R IP1; format: cell-based; details: Table 4a; 0.5 nM Orexin A
T3 construct: CHO-K1 cells stably expressing the full-length human orexin 2 receptor and the aequorin photoprotein; expressed in transfected cells; host or cells: CHO-K1 (CHO-K1/hOx2)
T3 sequence (O43614 1-444): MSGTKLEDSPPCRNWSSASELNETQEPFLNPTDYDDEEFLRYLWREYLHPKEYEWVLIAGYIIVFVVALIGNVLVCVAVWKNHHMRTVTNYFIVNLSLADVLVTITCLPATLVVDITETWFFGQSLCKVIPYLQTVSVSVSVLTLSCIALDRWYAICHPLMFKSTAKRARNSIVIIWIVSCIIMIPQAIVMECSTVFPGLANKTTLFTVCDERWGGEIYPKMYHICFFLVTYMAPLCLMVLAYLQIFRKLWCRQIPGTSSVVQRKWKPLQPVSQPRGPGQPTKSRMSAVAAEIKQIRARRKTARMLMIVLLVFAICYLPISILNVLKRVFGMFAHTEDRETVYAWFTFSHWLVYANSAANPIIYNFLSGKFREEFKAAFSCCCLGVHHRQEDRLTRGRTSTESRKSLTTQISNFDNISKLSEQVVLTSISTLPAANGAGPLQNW
From the text: Activation of the orexin receptors expressed in cell lines results in an increase in intracellular IP3 concentration. IP1, a downstream metabolite of IP3, accumulates in cells following receptor activation and is stable in the presence of LiCl. Using Homogeneous Time-Resolved Fluorescence technology with Lumi4-Tb cryptate (commercially available from Cisbio Bioassay) and a suitable fluorescence plate reader. […] Chem. Genomics 2009, 3, 22-32. This technique is used to characterize pharmacological modification of the orexin receptors.
B. In Vitro Testing of OX2R Potency: OX2R IP1
IP1 measurements are performed in CHO-K1 cells stably expressing the full-length human orexin 2 receptor and the aequorin photoprotein. Cells are cultivated in Ham's nutrient mixture F12 medium with 10% fetal calf serum, in a 37° C., 95% humidity and 5% CO2 incubator. The CHO-K1/hOx2 cell mass is expanded to larger cell numbers. The cells are obtained as frozen cells in cryo-vials and stored until use at −150° C. The viability of the cells after thawing is >90%. In preparation for the assay, 24 hours before the assay, the cells are thawed at 37° C. and immediately diluted with cell culture medium. After centrifugation, the cell pellet is re-suspended in medium and then distributed into the assay plates with a density of 5000 cells/25 μL per well. The plates are incubated for one hour at room temperature to reduce edge effects before they are incubated for 24 hours at 37° C./5% CO2. Compounds are prepared by a 8-point serial dilution in DMSO and a final dilution step into assay buffer (HBSS with 20 mM HEPES, 0.1% BSA and 50 mM LiCl, pH 7.4) to ensure a final DMSO concentration of 1% in the assay. On the day of the assay, cells in the plate are washed twice with 60 μL assay buffer (20 μL buffer remained in the wells after washing), followed by adding 5 μL per well of compounds diluted in assay buffer. After 15 minutes of incubation at room temperature 5 μL per well of Orexin A peptide (final concentration: 0.5 nM) dissolved in assay buffer is added to the assay plate. The assay plate is incubated for 60 minutes at 37° C. Then 5 μL per well of Anti-IP1-Cryptate Tb solution and 5 μL per well of IP1-d2 dilution are added to all well of the plate and the plate is incubated for a further 60 minutes light protected at room temperature. The emission at 615 nm and 665 nm (Excitation wavelength: 320 nm) are measured using an EnVision reader (PerkinElmer). The ratio between the emission at 665 nm and 615 is calculated by the reader.
8-point four parametric non-linear curve fitting and determination of IC50 values and Hill slopes is performed using a regular analysis software e.g. AssayExplorer (Accelrys). In order to establish an agonist concentration independent parameter, Kb values are calculated using the following equation: IC50/((2+(A/EC50)^n)^1/n−1) (with A=concentration agonist, EC50=EC50 agonist, n=Hill slope agonist) (see P. Leff, I. G. Dougall, Trends Pharmacol. Sci. 1993, 14(4), 110-112).
Kb values from Assay A (OX1R) and Assay B (OX2R) can then provide a selectivity ratio which is independent of the agonist (Orexin A) concentration.

OX2R = molecular target: T4, OX2R (Homo sapiens, UniProt O43614); experiment: OX2R assay of WO2016/034882, Table 3 (Method B); details: read-out: OX2R IC50 (corresponds to pIC50) (converted)
T4 sequence (O43614 1-444): T3 sequence (O43614 1-444)

OX1R = molecular target: T5, OX1R (Homo sapiens, UniProt O43613); experiment: OX1R assay of WO2016/034882, Table 3 (Method B); details: read-out: OX1R IC50 (corresponds to pIC50) (converted)
T5 sequence (O43613 1-425): T2 sequence (O43613 1-425)

Row | SMILES | efflux ratio (human MDR1 P-gp) | Kb (human Orexin 1 receptor) | chromatographic logP [1] | Kb (human orexin 2 receptor) | OX2R Kb/OX1R Kb (human Orexin 1 receptor) | IC50 (OX2R) | IC50 (OX1R)
1 | CCN(C(=O)c1cc(C)ccc1-n1nccn1)[C@@H](C)CNc1ncc(C(F)(F)F)cn1 [Example 2] | < 3 | 0.011 nM | 2 to 4 | 4.14 nM | – | – | –
2 | CCN(C(=O)c1cc(C)ccc1-n1nccn1)[C@@H](C)CN(C)c1ncc(C(F)(F)F)cn1 [Example 3] | < 3 | 0.02 nM | 2 to 4 | 15.2 nM | 755 | – | –
3 | CCN(C(=O)c1cc(OC)ccc1-n1nccn1)[C@@H](C)CNc1ncc(C(F)(F)F)cn1 [Example 4] | < 3 | 0.02 nM | 2 to 4 | 14.4 nM | – | – | –
4 | CCN(C(=O)c1nc(C)sc1-c1ccccc1)[C@@H](C)CNc1ncc(C(F)(F)F)cn1 [Example 6] | < 3 | 0.013 nM | 2 to 4 | 7.03 nM | – | – | –
5 | CCN(C(=O)c1ccc(Cl)cc1-n1nccn1)[C@@H](C)CNc1ncc(C(F)(F)F)cn1 [Example 7] | < 3 | 0.025 nM | 2 to 4 | 23.2 nM | – | – | –
6 | CCN(C(=O)c1nc(C)sc1-c1ccc(F)cc1)[C@@H](C)CNc1ncc(C(F)(F)F)cn1 [Example 8] | < 3 | 0.022 nM | 2 to 4 | 7.92 nM | – | – | –
7 | CCN(C(=O)c1ccc(C)c(C)c1-n1nccn1)[C@@H](C)CNc1ccc(Cl)cn1 [Example 14] | < 3 | 0.023 nM | – | 22.9 nM | – | – | –
8 | CCN(C(=O)c1cccc(F)c1-n1nccn1)[C@@H](C)CNc1ccc(C(F)(F)F)cn1 [Example 15] | < 3 | 0.0044 nM | 2 to 4 | 3.86 nM | – | – | –
9 | CCN(C(=O)c1cccc(F)c1-n1nccn1)[C@@H](C)CNc1ncc(C(F)(F)F)cc1F [Example 16] | < 3 | 0.014 nM | 2 to 4 | 7.6 nM | – | – | –
10 | CCN(C(=O)c1nccc(C(F)(F)F)c1-c1ccn(C)n1)[C@@H](C)COc1ccc(C(F)(F)F)cn1 [Example 19] | < 3 | 0.114 nM | 2 to 4 | 26.2 nM | – | – | –
11 | CCN(C(=O)c1ccc(OC)cc1-n1nccn1)[C@@H](C)CNc1ncc(C(F)(F)F)cn1 [Example 20] | < 3 | 0.091 nM | 2 to 4 | 115 nM | – | – | –
12 | CC[C@@H](CNc1ccc(C(F)(F)F)cn1)N(CC)C(=O)c1nc(C)ccc1-n1nccn1 [drawing 9] | – | – | – | – | – | 320 nM | –
13 | CC[C@@H](CNc1ncc(C(F)(F)F)cn1)N(C)C(=O)c1nc(C)ccc1-c1ncccn1 [drawing 11] | – | – | – | – | – | – | 1.9 nM
14 | CC[C@@H](CNc1ncc(C(F)(F)F)cn1)N(C)C(=O)c1c(F)cccc1-n1nccn1 [drawing 12] | – | – | – | – | – | ≥ 7950 nM | –
